Test results from US11884661B2, “3-substituted propionic acids as αV integrin inhibitors” (BRISTOL-MYERS SQUIBB COMPANY, priority 2016, dated 2024).
pIC50: −log10 of the molar value.

biological target: T1, human αVβ6 (Homo sapiens, UniProt P06756+P18564); assay: human αVβ6 HTRF binding assay; settings: recombinant human αVβ6 integrin, FITC-conjugated fibronectin
T1 construct: purchased R & D systems 3817-AV
In short: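 Biotinylated recombinant αVβ6 (1.25 nM final) incubated with FITC-fibronectin (5 nM) 1 h at RT, then streptavidin-terbium (0.625 nM) added and incubated overnight at RT in the dark before HTRF read. Buffer: 20 mM Tris pH 7.4, 1 mM MgCl2, 1 mM MnCl2, 0.01% Tween 20, 0.01% BSA.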

T1 sequence (P06756 31-992 limits assumed): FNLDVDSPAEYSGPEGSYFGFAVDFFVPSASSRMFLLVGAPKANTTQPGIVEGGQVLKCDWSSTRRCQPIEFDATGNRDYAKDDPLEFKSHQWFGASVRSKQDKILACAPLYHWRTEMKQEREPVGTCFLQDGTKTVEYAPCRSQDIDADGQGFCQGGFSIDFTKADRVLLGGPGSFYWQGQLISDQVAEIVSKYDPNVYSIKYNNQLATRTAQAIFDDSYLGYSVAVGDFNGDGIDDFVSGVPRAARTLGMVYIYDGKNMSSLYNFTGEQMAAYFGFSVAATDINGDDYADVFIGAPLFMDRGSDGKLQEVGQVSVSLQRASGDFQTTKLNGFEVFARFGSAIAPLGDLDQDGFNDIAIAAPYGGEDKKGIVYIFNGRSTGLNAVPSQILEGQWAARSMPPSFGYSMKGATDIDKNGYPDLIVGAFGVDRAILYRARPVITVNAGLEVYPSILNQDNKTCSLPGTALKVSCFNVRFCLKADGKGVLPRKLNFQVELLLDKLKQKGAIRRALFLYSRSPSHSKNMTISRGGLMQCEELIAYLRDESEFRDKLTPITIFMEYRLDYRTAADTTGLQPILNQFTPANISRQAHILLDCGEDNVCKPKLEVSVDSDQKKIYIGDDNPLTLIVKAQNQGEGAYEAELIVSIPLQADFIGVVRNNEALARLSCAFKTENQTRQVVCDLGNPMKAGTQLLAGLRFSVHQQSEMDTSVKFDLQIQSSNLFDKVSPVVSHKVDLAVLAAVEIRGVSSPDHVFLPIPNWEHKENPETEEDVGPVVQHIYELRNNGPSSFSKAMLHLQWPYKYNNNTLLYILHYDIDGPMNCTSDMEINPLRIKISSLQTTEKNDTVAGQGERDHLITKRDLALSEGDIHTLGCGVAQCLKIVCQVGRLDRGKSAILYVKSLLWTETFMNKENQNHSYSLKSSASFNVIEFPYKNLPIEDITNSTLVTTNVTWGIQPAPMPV
T1 sequence (P18564 22-707 limits assumed): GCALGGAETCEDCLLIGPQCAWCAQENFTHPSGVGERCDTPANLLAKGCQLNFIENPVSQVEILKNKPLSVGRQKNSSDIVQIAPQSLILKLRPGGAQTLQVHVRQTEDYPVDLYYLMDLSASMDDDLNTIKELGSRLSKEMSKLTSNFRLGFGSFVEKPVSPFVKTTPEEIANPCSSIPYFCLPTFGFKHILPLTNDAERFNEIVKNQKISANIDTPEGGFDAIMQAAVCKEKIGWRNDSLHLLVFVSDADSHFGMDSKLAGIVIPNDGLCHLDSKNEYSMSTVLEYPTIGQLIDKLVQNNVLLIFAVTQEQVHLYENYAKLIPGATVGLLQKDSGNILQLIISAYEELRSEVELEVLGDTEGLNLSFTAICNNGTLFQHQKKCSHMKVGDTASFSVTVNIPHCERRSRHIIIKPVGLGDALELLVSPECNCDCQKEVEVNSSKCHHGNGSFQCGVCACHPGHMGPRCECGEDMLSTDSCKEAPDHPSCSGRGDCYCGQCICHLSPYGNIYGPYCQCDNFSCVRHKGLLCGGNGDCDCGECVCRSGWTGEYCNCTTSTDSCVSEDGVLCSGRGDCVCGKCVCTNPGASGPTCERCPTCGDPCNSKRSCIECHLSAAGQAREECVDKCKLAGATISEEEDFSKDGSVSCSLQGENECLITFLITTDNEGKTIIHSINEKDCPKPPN

| Structure (SMILES) | pIC50 |
| --- | --- |
| Cc1cncc(C(CC(=O)O)n2ccc(CCCc3ccc4c(n3)NCCC4)n2)c1 (single isomer, unassigned) [Example 69, 3-(5-methylpyridin-3-yl)-3-{3-[3-(5,6,7,8-tetrahydro-1,8-naphthyridin-2-yl)propyl]-1H-pyrazol-1-yl}propanoic acid] | 7.82 |
| Cc1cncc(C(CC(=O)O)n2ccc(CCCc3ccc4c(n3)NCCC4)n2)c1 (single isomer, unassigned) [Example 70, 3-(5-methylpyridin-3-yl)-3-{3-[3-(5,6,7,8-tetrahydro-1,8-naphthyridin-2-yl)propyl]-1H-pyrazol-1-yl}propanoic acid] | 5.31 |
| COCCOc1cncc(C(CC(=O)O)n2ccc(CCCc3ccc4c(n3)NCCC4)n2)c1 (single isomer, unassigned) [Example 80, 3-(5-(2-methoxyethoxy)pyridin-3-yl)-3-(3-(3-(5,6,7,8-tetrahydro-1,8-naphthyridin-2-yl)propyl)-1H-pyrazol-1-yl)propanoic acid] | 8.74 |
| O=C(O)CC(c1cncc(N2CCOCC2)c1)n1nccc1CCCc1ccc2c(n1)NCCC2 (single isomer, unassigned) [Example 94, 3-(5-morpholinopyridin-3-yl)-3-(5-(3-(5,6,7,8-tetrahydro-1,8-naphthyridin-2-yl)propyl)-1H-pyrazol-1-yl)propanoic acid] | 7.72 |
| O=C(O)CC(c1cncc(N2CCOCC2)c1)n1nccc1CCCc1ccc2c(n1)NCCC2 (single isomer, unassigned) [Example 95, 3-(5-morpholinopyridin-3-yl)-3-(5-(3-(5,6,7,8-tetrahydro-1,8-naphthyridin-2-yl)propyl)-1H-pyrazol-1-yl)propanoic acid] | 6.64 |
| Cc1ncc(C(CC(=O)O)n2ccc(CCCc3ccc4c(n3)NCCCC4)n2)cn1 (single isomer, unassigned) [Example 97, 3-(2-methylpyrimidin-5-yl)-3-(3-(3-(6,7,8,9-tetrahydro-5H-pyrido[2,3-b]azepin-2-yl)propyl)-1H-pyrazol-1-yl)propanoic acid] | 7.35 |
| COc1ccc(C(CC(=O)O)n2ccc(CCCc3ccc4c(n3)NCCCC4)n2)cn1 (single isomer, unassigned) [Example 101, 3-(6-methoxypyridin-3-yl)-3-(3-(3-(6,7,8,9-tetrahydro-5H-pyrido[2,3-b]azepin-2-yl)propyl)-1H-pyrazol-1-yl)propanoic acid] | 8.37 |
| COc1ccc(C(CC(=O)O)n2ccc(CCCc3ccc4c(n3)NCCCC4)n2)cn1 (single isomer, unassigned) [Example 102, 3-(6-methoxypyridin-3-yl)-3-(3-(3-(6,7,8,9-tetrahydro-5H-pyrido[2,3-b]azepin-2-yl)propyl)-1H-pyrazol-1-yl)propanoic acid] | 6.82 |
| COc1ncc(C(CC(=O)O)n2ccc(CCCc3ccc4c(n3)NCCCC4)n2)cn1 (single isomer, unassigned) [Example 104, 3-(2-methoxypyrimidin-5-yl)-3-(3-(3-(6,7,8,9-tetrahydro-5H-pyrido[2,3-b]azepin-2-yl)propyl)-1H-pyrazol-1-yl)propanoic acid] | 8.00 |
| COc1ncc(C(CC(=O)O)n2ccc(CCCc3ccc4c(n3)NCCCC4)n2)cn1 (single isomer, unassigned) [Example 105] | 6.33 |
| COc1ccc(C(CC(=O)O)c2cc(CCCc3ccc4c(n3)NCCC4)[nH]n2)cc1F (single isomer, unassigned) [Example 115, 3-(3-Fluoro-4-methoxyphenyl)-3-(5-(3-(5,6,7,8-tetrahydro-1,8-naphthyridin-2-yl)propyl)-1H-pyrazol-3-yl)propanoic acid] | 7.01 |
| CN(C)C(=O)c1cccc(C(CC(=O)O)c2nc(CCCCc3ccc4c(n3)NCCC4)cs2)c1 (single isomer, unassigned) [Example 117, 3-(3-(dimethylcarbamoyl)phenyl)-3-(4-(4-(5,6,7,8-tetrahydro-1,8-naphthyridin-2-yl)butyl)thiazol-2-yl)propanoic acid] | 7.12 |

More lines, now with the values ahead:

| pIC50 | Structure (SMILES) |
| --- | --- |
| 8.72 | CN(C)C(=O)c1cccc(C(CC(=O)O)c2nc(CCCCc3ccc4c(n3)NCCC4)cs2)c1 (single isomer, unassigned) [Example 118, 3-(3-(dimethylcarbamoyl)phenyl)-3-(4-(4-(5,6,7,8-tetrahydro-1,8-naphthyridin-2-yl)butyl)thiazol-2-yl)propanoic acid] |
| 7.00 | O=C(O)CC(c1ccc2nccnc2c1)c1nc(CCCCc2ccc3c(n2)NCCC3)cs1 (single isomer, unassigned) [Example 119, 3-(quinoxalin-6-yl)-3-(4-(4-(5,6,7,8-tetrahydro-1,8-naphthyridin-2-yl)butyl)thiazol-2-yl)propanoic acid] |
| 7.85 | O=C(O)CC(c1ccc2nccnc2c1)c1nc(CCCCc2ccc3c(n2)NCCC3)cs1 (single isomer, unassigned) [Example 120, 3-(quinoxalin-6-yl)-3-(4-(4-(5,6,7,8-tetrahydro-1,8-naphthyridin-2-yl)butyl)thiazol-2-yl)propanoic acid] |
| 6.77 | CN(C)c1ccc(C(CC(=O)O)c2nc(CCCCc3ccc4c(n3)NCCC4)cs2)cn1 (single isomer, unassigned) [Example 121, 3-(6-(dimethylamino)pyridin-3-yl)-3-(4-(4-(5,6,7,8-tetrahydro-1,8-naphthyridin-2-yl)butyl)thiazol-2-yl)propanoic acid] |
| 8.46 | CN(C)c1ccc(C(CC(=O)O)c2nc(CCCCc3ccc4c(n3)NCCC4)cs2)cn1 (single isomer, unassigned) [Example 122, 3-(6-(dimethylamino)pyridin-3-yl)-3-(4-(4-(5,6,7,8-tetrahydro-1,8-naphthyridin-2-yl)butyl)thiazol-2-yl)propanoic acid] |
| 6.74 | COc1ccc(C(CC(=O)O)c2nc(CCCCc3ccc4c(n3)NCCC4)cs2)cc1OC (single isomer, unassigned) [Example 123, 3-(3,4-dimethoxyphenyl)-3-(4-(4-(5,6,7,8-tetrahydro-1,8-naphthyridin-2-yl)butyl)thiazol-2-yl)propanoic acid] |
| 8.60 | COc1ccc(C(CC(=O)O)c2nc(CCCCc3ccc4c(n3)NCCC4)cs2)cc1OC (single isomer, unassigned) [Example 124, 3-(3,4-dimethoxyphenyl)-3-(4-(4-(5,6,7,8-tetrahydro-1,8-naphthyridin-2-yl)butyl)thiazol-2-yl)propanoic acid] |
| 6.74 | O=C(O)CC(c1cccc(N2CCOCC2)c1)c1nc(CCCCc2ccc3c(n2)NCCC3)cs1 (single isomer, unassigned) [Example 125, 3-(3-morpholinophenyl)-3-(4-(4-(5,6,7,8-tetrahydro-1,8-naphthyridin-2-yl)butyl)thiazol-2-yl)propanoic acid] |
| 8.22 | O=C(O)CC(c1cccc(N2CCOCC2)c1)c1nc(CCCCc2ccc3c(n2)NCCC3)cs1 (single isomer, unassigned) [Example 126, 3-(3-morpholinophenyl)-3-(4-(4-(5,6,7,8-tetrahydro-1,8-naphthyridin-2-yl)butyl)thiazol-2-yl)propanoic acid] |
| 7.22 | CN(C)C(=O)c1ccc(C(CC(=O)O)c2nc(CCCCc3ccc4c(n3)NCCC4)cs2)cc1 (single isomer, unassigned) [Example 127, 3-(4-(dimethylcarbamoyl)phenyl)-3-(4-(4-(5,6,7,8-tetrahydro-1,8-naphthyridin-2-yl)butyl)thiazol-2-yl)propanoic acid] |
